Patent publication US20220364132A1, “METHOD FOR FORMING A STORAGE STABLE H[…] A LIGNO[…]” (Sekab E- Technology AB, priority 2019, published 2022)

Tested on: Lactobacillus sp.
Test: Storage of a sugar-rich hydrolysate inoculated with Lactobacillus sp., glucose by HPLC
Assay type: cell-based
Experimental: To test the theory, synthetic media was made containing about 90 g/l glucose, 0.5% sodium phosphate/phosphoric acid buffer (pH 5.5), 0.5 g/l diammonium phosphate, 2 g/l yeast extract and 2 g/l peptone. This solution (45 ml) was added to 50 ml serum bottles, along with a magnetic stirrer bar, and autoclaved, where after sodium sulfite at concentrations of 5, 10, 20 and 40 mM was added, while some bottles had no sulfite added, which served as control (0 mM). […] This culture was incubated at 37° C. for 36 hours and used to inoculate all the serum bottles (10% v/v). The serum bottles were then sealed with an airtight septum and a metal ring clamp and two needles were inserted through the septum to allow for sampling. The serum bottles were placed on a magnetic stirrer plate at room temperature (since storage tanks are typically kept at room temperature), with stirring at 100 rpm. Samples were taken periodically and analyzed for glucose and lactic acid using HPLC. Experiments were performed in triplicate. The experiments were continued for 11 days.
Storage of sugar-rich hydrolysate with addition of 5-40 mM was performed in accordance with the description of example 2. In this example, the samples were prepared and handled as in example 2. In other words, the “Experiment A” samples in this example are identical to those of example 2, and these were used as a reference for the “Experiment B” and “Experiment C” samples, as well as for validating the results of example 2.
The “Experiment B” samples were inoculated with a Lactobacillus sp. at time 0 hours, and again after 336 hours. This was done to test the infection resistance of samples that were exposed to more than one culture of Lactobacillus sp; i.e. samples that were re-infected after two weeks.
The samples in “Experiment C” were stored at ambient room temperature for 2 weeks, after which Lactobacillus was added to the flasks, after 336 hours. Samples were incubated for another 7 days and a total of 21 days as for the other two experiments.

O=S([O-])[O-].[Na+].[Na+] [sodium sulfite]
growth of Lactobacillus sp. (5, 10, 20 and 40 mM, three weeks of incubation): inhibited the growth | Glucose (Experiment A, 5 mM, 0 h): 83.3 g/L | Glucose (Experiment A, 5 mM, 172 h): 84.0 g/L | Glucose (Experiment A, 5 mM, 340 h): 83.5 g/L | Glucose (Experiment A, 5 mM, 510 h): 83.2 g/L | Glucose (Experiment A, 10 mM, 0 h): 84.1 g/L | Glucose (Experiment A, 10 mM, 172 h): 85.3 g/L | Glucose (Experiment A, 10 mM, 340 h): 82.8 g/L | Glucose (Experiment A, 10 mM, 510 h): 82.2 g/L | Glucose (Experiment A, 20 mM, 0 h): 83.7 g/L | Glucose (Experiment A, 20 mM, 172 h): 85.6 g/L | Glucose (Experiment A, 20 mM, 340 h): 86.8 g/L | Glucose (Experiment A, 20 mM, 510 h): 84.7 g/L | Glucose (Experiment A, 40 mM, 0 h): 81.5 g/L | Glucose (Experiment A, 40 mM, 172 h): 83.2 g/L | Glucose (Experiment A, 40 mM, 340 h): 83.2 g/L | Glucose (Experiment A, 40 mM, 510 h): 83.6 g/L | glucose consumption (Experiment A, flasks with added sodium sulfite, three weeks): no glucose consumption | bacterial growth (Experiment B (inoculated at 0 h and 336 h), 5 mM or more, 21 days): No signs of bacterial growth | Glucose (Experiment B, 5 mM, 0 h): 82.3 g/L | Glucose (Experiment B, 5 mM, 172 h): 82.9 g/L | Glucose (Experiment B, 5 mM, 340 h): 82.6 g/L | Glucose (Experiment B, 5 mM, 510 h): 78.3 g/L | Glucose (Experiment B, 10 mM, 0 h): 82.9 g/L | Glucose (Experiment B, 10 mM, 172 h): 84.3 g/L | Glucose (Experiment B, 10 mM, 340 h): 81.5 g/L | Glucose (Experiment B, 10 mM, 510 h): 80.8 g/L | Glucose (Experiment B, 20 mM, 0 h): 82.8 g/L | Glucose (Experiment B, 20 mM, 172 h): 74.7 g/L | Glucose (Experiment B, 20 mM, 340 h): 86.0 g/L | Glucose (Experiment B, 20 mM, 510 h): 83.3 g/L | Glucose (Experiment B, 40 mM, 0 h): 80.2 g/L | Glucose (Experiment B, 40 mM, 172 h): 82.1 g/L | Glucose (Experiment B, 40 mM, 340 h): 82.0 g/L | Glucose (Experiment B, 40 mM, 510 h): 82.5 g/L | bacterial growth (Experiment C (14 days storage at room temperature, then inoculated), concentrations above 5 mM): no growth was observed | Glucose (Experiment C, 5 mM, 0 h): 81.2 g/L | Glucose (Experiment C, 5 mM, 172 h): 81.6 g/L | Glucose (Experiment C, 5 mM, 340 h): 85.5 g/L | Glucose (Experiment C, 5 mM, 510 h): 82.0 g/L | Glucose (Experiment C, 10 mM, 0 h): 82.2 g/L | Glucose (Experiment C, 10 mM, 172 h): 81.8 g/L | Glucose (Experiment C, 10 mM, 340 h): 84.0 g/L | Glucose (Experiment C, 10 mM, 510 h): 82.4 g/L | Glucose (Experiment C, 20 mM, 0 h): 80.8 g/L | Glucose (Experiment C, 20 mM, 172 h): 80.3 g/L | Glucose (Experiment C, 20 mM, 340 h): 84.5 g/L | Glucose (Experiment C, 20 mM, 510 h): 83.3 g/L | Glucose (Experiment C, 40 mM, 0 h): 82.0 g/L | Glucose (Experiment C, 40 mM, 172 h): 81.6 g/L | Glucose (Experiment C, 40 mM, 340 h): 86.2 g/L | Glucose (Experiment C, 40 mM, 510 h): 82.0 g/L
